According to PubChem BioAssay AID651549 (Sanford-Burnham Center for Chemical Genomics, 2012):
pIC50: −log10 of the molar value. Activity calls are given as the source filed them.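 Rule for the calls: active = compounds blocking the PEG3 reporter with IC50 up to 10 µM at either incubation, yet sparing the GAPDH control reporter; inactive = the rest.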

Test: GAPDH and PEG-3 promoter luciferase suppression – cell-based, luminescence, set 2, counter-screen for PEG-3 promoter inhibitor project, dose response (AID 651549)
Details: HeLa PEG-Prom-luciferase or GAPDH-reporter, 6/24 h

Row | Compound | IC50 (GAPDH, run 1, 6 h) | IC50 (GAPDH, run 1, 24 h) | IC50 (PEG-3, run 1, 6 h) | IC50 (PEG-3, run 1, 24 h) | pIC50 (GAPDH, run 1, 6 h) | pIC50 (GAPDH, run 1, 24 h) | pIC50 (PEG-3, run 1, 6 h) | pIC50 (PEG-3, run 1, 24 h)
1 | O=C(NCC1CCCO1)C(c1ccc(F)cc1)N(C(=O)Cn1nnc(-c2ccc(F)cc2)n1)c1cccc(O)c1 (configuration not stated) | inactive | inactive | > 99 µM (inactive) | inactive | – | – | – | –
2 | Cc1cccc(NC(=O)c2nc(S(=O)(=O)Cc3ccccc3)ncc2Cl)c1 | – | – | inactive | inactive | 5.08 | 5.15 | – | –
3 | COc1ccc(CC2C(=O)NC(C)C(=O)N(C)C3C(=O)N(C)C(Cc4ccc(O)c(c4)Oc4ccc(cc4)C3O)C(=O)NC(C)C(=O)NC(C)C(=O)N2C)cc1 (configuration not stated) | – | – | – | – | > 6.00 | > 6.00 | > 6.00 | > 6.00
4 | CCSc1nc2ccccc2n1C(=O)/C=C\c1ccc(OC)c(OC)c1 | – | – | – | – | 5.17 | 5.27 | 5.17 | 5.16
5 | CC(=O)OC1CC[C@]2(C#N)[C@H]3CC[C@]4(C)[C@H](C5C=CC(=O)O5)CCC4(O)C3CCC2(O)C1 (some centres not stated) | – | inactive | – | inactive | 5.19 | – | 5.80 | –
6 | COc1ccc(-n2cc(-c3ccccc3)c3c(N4CCOCC4)ncnc32)cc1 | inactive | – | inactive | inactive | – | 5.53 | – | –
7 | CC(=O)c1cccc(-c2ccnc3c2CC(C(=O)Nc2cccc(NS(C)(=O)=O)c2)O3)c1 (configuration not stated) | inactive | – | > 99 µM (inactive) | inactive | – | 5.06 | – | –
8 | Cc1ccc2nc(NC(=O)CSCC(=O)OCC(=O)c3ccccc3)sc2c1 | inactive | – | inactive | inactive | – | 5.25 | – | –
9 | CCCCCCCn1c(=N)n(CC(=O)c2ccco2)c2ccccc21 | inactive | inactive | inactive | inactive | – | – | – | –
10 | CCCn1nc(C(=O)Nc2nc(-c3ccccn3)cs2)c2ccccc2c1=O | inactive | inactive | > 99 µM (inactive) | > 99 µM (inactive) | – | – | – | –
11 | COC(=O)c1ccc2nc(Nc3nc4ccc(F)cc4s3)sc2c1 | – | – | – | – | > 6.00 | 6.27 | > 6.00 | 5.56
12 | CC(C)(C)c1ccc(Oc2ccc(N)cc2)cc1 | – | – | – | – | 5.21 | 5.27 | 5.22 | 5.19
13 | NS(=O)(=O)c1ccc(CCNc2nn3c(-c4ccc(F)c(Cl)c4)cnc3s2)cc1 | inactive | – | inactive | – | – | 5.62 | – | 5.52
